Results: PMC3842960, “Natural Stilbenoids Isolated from Grapevine Exhibiting Inhibitory Effects against HIV-1 Integrase and Eukaryote MOS1 Transposase In Vitro Activities” (PLoS ONE, 2013)

Columns and labels:
Mos1 transposase (MOS1) [1] = target: T1, Mos1 transposase (MOS1) (Drosophila mauritiana, UniProt Q7JQ07); assay: MOS1 in vitro excision assay; assay type: biochemical, D. mauritiana
T1 construct: involving the full-length Mos1 transposase (MOS1) was recently solved; made in house
Description: (§1) Basic excision reaction mixtures contained 10 mM Tris-HCl (pH 9), 50 mM NaCl, 20 mM MgCl2, 0.5 mM EDTA, 0.5 mM DTT, 100 ng BSA, 600 ng of super-coiled pBC-3T3, and 80 nM MBP-MOS1 (added last) in a volume of 20 µl. Molecules (25 or 10 µM, as specified) or DMSO (2%) were added to the reaction mixtures before the transposase. The reactions were allowed to proceed at 30°C for 30 min before 2 µl of stop solution (loading buffer) were added. The reaction mixtures were then incubated at 65°C for 10 min. Each reaction was analysed by overnight electrophoresis at 2.7 V/cm on a TAE-buffered 1% agarose gel with ethidium bromide (0.3 mg/ml). After electrophoresis, the gel was photographed on a transilluminator. ImageGauge 4.22 software (Fujifilm) was used to quantify the bands. Each condition was tested at least twice.
The ability of the selected molecules to inhibit excision was tested in vitro using the pBC-3T3 plasmid as the transposon donor. MOS1 triggers the excision of the pseudo-Mos1 from the plasmid producing two linear DNA fragments, the transposon and the plasmid backbone, together with intermediate products (open circle plasmids which contained single strand nicks and linear plasmids which contained a double strand nick at one ITR). After excision, the transposon could be reintegrated, making it difficult to detect in electrophoresis. The activity of the molecules was measured by quantifying the plasmid backbone, the end product of the reaction. The assays were performed with final concentrations of 25 and 10 µM molecules. Controls correspond to assays performed without molecule but with DMSO. […] Reactions were performed at least twice for each selected molecules (leachianol G, leachianol F, quadrangularin A, hopeaphenol, vitisin B and pallidol) and the excision activity is reported in figure 7B . […] The six selected molecules were then tested for the integration step of Mos1 transposition.

HIV-1 IN [2] = target: T2, HIV-1 IN (Human immunodeficiency virus type 1 group M subtype B, UniProt P04585); assay: HIV-1 IN 3′processing assay; assay type: biochemical; conditions: 600 nM IN; increasing concentrations
HIV-1 IN [3] = target: T2, HIV-1 IN; assay: HIV-1 IN in vitro concerted integration assay (processed or unprocessed donor DNA); conditions: for differential effect between reactions: strand transfer / processed donor versus 3′processing / unprocessed donor: comparison of concerted integration and 3′processing results; for inhibitory efficiency compared with raltegravir: concerted integration; for inhibitory efficiency compared with raltegravir / inhibition of concerted integration from processed and unprocessed donor: increasing concentrations
MOS1 = target: T3, MOS1 (Drosophila mauritiana, UniProt Q7JQ07); assay: MOS1 in vitro activities, overall statements of the discussion; assay type: biochemical, D. mauritiana; conditions: in vitro assays of MOS1 activities; discussion
T3 construct: involving the full-length Mos1 transposase (MOS1) was recently solved; made in house
T3 sequence (Q7JQ07 whole entry): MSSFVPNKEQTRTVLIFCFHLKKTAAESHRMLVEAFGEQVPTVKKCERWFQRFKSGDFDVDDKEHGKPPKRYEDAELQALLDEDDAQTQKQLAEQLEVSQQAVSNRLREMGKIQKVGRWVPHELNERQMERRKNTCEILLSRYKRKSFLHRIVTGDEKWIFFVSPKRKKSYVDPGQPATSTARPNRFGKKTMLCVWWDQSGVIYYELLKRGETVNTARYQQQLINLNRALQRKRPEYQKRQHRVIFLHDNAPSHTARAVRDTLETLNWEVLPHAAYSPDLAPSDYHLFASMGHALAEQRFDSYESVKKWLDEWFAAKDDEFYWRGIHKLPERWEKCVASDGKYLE
Description: (§2) In vitro transposition reactions were performed using pBC-3T3 as both the donor DNA and the target, as previously described. Briefly, the basic transposition reaction mixtures contained 10 mM Tris-HCl (pH 9), 50 mM NaCl, 20 mM MgCl2, 0.5 mM EDTA, 5% glycerol, 5 ng/ml BSA, 600 ng pBC-3T3, and 80 nM purified MBP-MOS1 (added last) in a volume of 20 µl. Inhibitors (25 or 10 µM, as specified) or DMSO (2%) were added to the reaction mixtures before the transposase. The reactions were allowed to proceed for 30 min at 30°C. After phenol-chloroform extraction and ethanol precipitation, 10% of the reaction mixture was transformed in electro-competent JM109 E. coli (2 mm cuvette, 1.5 kV in a MicroPulser™BioRad). Appropriate dilutions of each reaction mixture were plated on LB-tetracycline (12.5 µg/ml) agar and LB-chloramphenicol (80 µg/ml) agar to score the transposition rate. The transposition rate was the number of Tet^R colonies divided by the number of Chloram^R plus Tet^R colonies. Each condition was done at least three times in independent experiments.
as §1
These assays were performed using pre-cleaved 3′ITRs (PC-ITR), i.e. ITRs in the configuration expected after excision. Double-strand ITRs were obtained by annealing equimolar amounts of 70-NTS-PN (5′[…]3′) and 70-TS-PC (5′[…]3′) single-strand oligonucleotides. Prior to annealing, the transferred strand (70-TS-PC) was 5′-end labelled using T4 polynucleotide kinase (Promega) and γ-^32P-ATP following the manufacturer's instructions. Oligonucleotides were provided by Eurofins MWG Biotech (Germany) or Eurogentec (Belgium). Reaction mixtures containing 10 mM Tris-HCl (pH 9), 50 mM NaCl, 1 mM DTT, 5% glycerol, 100 ng BSA, 100 nM of labelled PC-ITR and 100 nM MBP-MOS1 in a final volume of 20 µl were incubated at 30°C for 30 min. The pBC plasmid (which contained the cat gene, a hot-spot for Mos1 insertion) was then added to 30 ng/µL along with 5 mM MgCl2. Molecules (25 or 10 µM, as specified) or DMSO (2%) were added to the reaction mixtures along with the target DNA to estimate their effect on integration. Reactions were carried out for 3 hours at 30°C. 0.1 mg/ml proteinase K and 0.1% SDS were added to stop the reaction. DNA products were purified by phenol-chloroform extraction and ethanol precipitated using standard techniques. DNA products were resuspended in DNA loading buffer, then separated onto a 1% agarose gel in 1X TAE (Tris Acetate EDTA) buffer. The gel was dried onto a nitrocellulose membrane (Hybond N+, GE Healthcare), scanned using a Storm, and analysed with ImageQuant software. Signals were quantified using ImageQuant software. Efficiency of integration was calculated as the intensity of the integration signal divided by the intensity of free target signal plus integration signal. Each condition was tested at least twice.
All molecules were also tested in in vitro assays reproducing integration and excision reactions catalysed by MOS1. […] In contrast, E-resveratrol and E-ε-viniferin glucoside, which act more specifically on HIV-1 3′processing reaction, and E-piceid and E-pterostilbene, which is more efficient on the integration reaction, were not active on MOS1.

Mos1 transposase (MOS1) [4] = target: T1, Mos1 transposase (MOS1); assay: MOS1 in vitro transposition assay (genetic hop experiment); assay type: biochemical, D. mauritiana
Description: The wild type Mos1 transposase (MOS1: 345 amino acids) was produced and purified as a fusion protein linked to the maltose-binding protein by using the pMal-c2 system (New England Biolabs) and following the manufacturer's instructions.
as §2
To identify the natural stilbenes active on MOS1, the 17 molecules were tested using an in vitro genetic “hop” experiment, which is the most sensitive test available as yet. Purified MOS1 was incubated with the pBC-3T3 plasmid, which was used both as the transposon donor and the target plasmid. This plasmid contains the pBR322 tetracycline resistance gene (without promoter) framed by two Mos1 ITRs. This reconstitutes a pseudo-Mos1 element named 3T3. We took advantage of the fact that the cat gene (present in the pBC backbone) is a hotspot for Mos1 integration. […] Transposition events were recovered by bacterial transformation with selection for tetracycline resistance, as a gain-of-function landmark for transposition. […] Controls correspond to assays performed without molecule but with DMSO, which is routinely used as the solvent. […] To confirm the efficiency of the six molecules, they were similarly assayed at 10 µM ( figure 6B ). Since they appeared to be still active at 10 µM, they were further characterized in order to identify the targeted step of the transposition cycle.

topoisomerase II = tested on: topoisomerase II; design: method as in PMID 16508191; conditions: cited from earlier work
[5] = tested on: VSV-G pseudotyped lentiviruses; assay type: cell-based; conditions: 10 µM
[6] = tested on: VSV-G pseudotyped lentiviruses; assay type: cell-based

T1 sequence (Q7JQ07 whole entry): as above

## Oc1ccc(C(O)C2c3cc(O)cc(O)c3[C@H](c3ccc(O)cc3)[C@H]2c2cc(O)cc(O)c2)cc1 (some centres unmarked) [leachianol F]
Mos1 transposase (MOS1) [1]; 25 µM, DMSO control as reference, read-out: inhibition of in vitro excision reaction
  inhibition at 25 µM: > 50%
Mos1 transposase (MOS1) [1]; concentration range, sigmoid dose-response fit
  IC50: 30 µM
HIV-1 IN [2]
  inhibitory effect on 3′processing: showed an inhibitory effect
HIV-1 IN [3]; 50 µM, both activities (processed and unprocessed donor)
  inhibition of concerted integration: 30–60%
HIV-1 IN [3]
  differential effect between reactions: strand transfer / processed donor versus 3′processing / unprocessed donor: active on both reactions
  inhibitory efficiency compared with raltegravir: inhibitory efficiencies close to raltegravir
  inhibition of concerted integration from processed and unprocessed donor: inhibited both activities
MOS1
  activity on MOS1: also active against MOS1 activities
Mos1 transposase (MOS1) [4]; 10 µM
  activity against MOS1 in transposition assay: still active
Mos1 transposase (MOS1) [4]; 25 µM, DMSO control as reference
  inhibition of the whole MOS1 transposition activity: over 50%
Topoisomerase II
  topoisomerase II inhibition: potent topoisomerase II inhibitors

## COc1cc(/C=C/c2ccc(O)cc2)cc(OC)c1 [E-pterostilbene]
HIV-1 IN [3]
  differential effect between reactions: strand transfer / processed donor versus 3′processing / unprocessed donor: more active on strand transfer reaction than
  inhibitory efficiency compared with raltegravir: inhibitory efficiencies close to raltegravir
  inhibition of concerted integration from processed and unprocessed donor: inhibited both activities
MOS1
  activity on MOS1: not active
[5]
  1LTR circles amount: no decrease
  2LTR circles DNA: non significant increase
  integrated DNA amount: slight but reproducible decrease
  total viral DNA amount: No significant change
[6]
  integration inhibition evaluated by GFP fluorescence: found to induce an integration inhibition
